Experimental data taken from PubChem BioAssay (NCI).
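Method: 48-hour compound exposure of cells in 96-well plates, five concentrations, linear interpolation of endpoints. At the TGI there is no net growth.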

Tests used:
Assay in all cases: NCI tumour cell line growth inhibition, 48 h
[1] = test system: UACC-62 melanoma
[2] = test system: PC-3 prostate
[3] = test system: SK-MEL-5 melanoma
[4] = test system: IGROV1 ovarian
[5] = test system: NCI-H522 lung
[6] = test system: SF-268 CNS
[7] = test system: A549 NSCLC
[8] = test system: MDA-N
[9] = test system: OVCAR-3 ovarian
[10] = test system: COLO 205 colon
[11] = test system: NCI-H460 lung
[12] = test system: UACC-257 melanoma
[13] = test system: HOP-92 NSCLC
[14] = test system: SF-295 CNS
[15] = test system: DU-145 prostate
[16] = test system: NCI/ADR-RES ovarian
[17] = test system: HCT-15 colon
[18] = test system: ACHN renal
[19] = test system: MALME-3M melanoma
[20] = test system: HCT-116 colon
[21] = test system: MDA-MB-231 breast
[22] = test system: SR leukemia
[23] = test system: EKVX NSCLC
[24] = test system: 786-0 renal
[25] = test system: M14 melanoma
[26] = test system: SK-MEL-2 melanoma
[27] = test system: T-47D breast
[28] = test system: SW-620 colon
[29] = test system: HOP-62 NSCLC
[30] = test system: LOX IMVI melanoma
[31] = test system: SN12C renal
[32] = test system: OVCAR-8 ovarian
[33] = test system: HT29 colon
[34] = test system: HS 578T breast
[35] = test system: SNB-75 CNS
[36] = test system: MOLT-4 leukemia

CC(C)(C)[Si](C)(C)OCC1OC(n2cnc3c(N)ncnc32)C(O[Si](C)(C)C(C)(C)C)C1O[Si](C)(C)C(C)(C)C (stereo unspecified)
TGI [1]: 51.6 µM
TGI [2]: 30 µM
TGI [3]: 14.4 µM
TGI [4]: > 100 µM
TGI [5]: 21.3 µM
TGI [6]: 56.5 µM
TGI [7]: 48.5 µM
TGI [8]: > 100 µM
TGI [9]: 13.8 µM
TGI [10]: > 100 µM
TGI [11]: 27.3 µM
TGI [12]: > 100 µM
TGI [13]: > 100 µM
TGI [14]: 62.3 µM
TGI [15]: > 100 µM
TGI [16]: > 100 µM
TGI [17]: > 100 µM
TGI [18]: 27.2 µM
TGI [19]: > 100 µM
TGI [20]: 22.4 µM
TGI [21]: 54.1 µM
TGI [22]: 86.7 µM
TGI [23]: 64.7 µM
TGI [24]: 18.6 µM
TGI [25]: 67.4 µM
TGI [26]: 49.4 µM
TGI [27]: 46.4 µM
TGI [28]: > 100 µM
TGI [29]: 46 µM
TGI [30]: 39.2 µM
TGI [31]: 34.9 µM
TGI [32]: 42 µM
TGI [33]: > 100 µM
TGI [34]: 58.5 µM
TGI [35]: 27.6 µM
TGI [36]: 12.8 µM
